16 molecules from patent US10022352B2, “Modulators of ATP-binding cassette transporters” (Vertex Pharmaceuticals Incorporated, priority 2006, dated 2018) can be followed below.

SMILES strings stand for the structures. Like-named read-outs stand apart in the source and are kept apart here.

Broadly, the EC50 is the midpoint of the concentration-response curve. A word on the solubility: it is the dissolved amount per volume that the medium holds. Read a low solubility as a poorly soluble substance.

The target of one data set is ΔF508-CFTR (Homo sapiens (Human), UniProt P13569, DEL508-508). Kind of data set: Membrane potential optical assay, identification of correction compounds. The format is cell-based. The text has this: Membrane potential optical methods for assaying ΔF508-CFTR modulation properties of compounds.
The assay utilizes fluorescent voltage sensing dyes to measure changes in membrane potential using a fluorescent plate reader (e.g., FLIPR II, Molecular Devices, Inc.) as a readout for increase in functional ΔF508-CFTR in NIH 3T3 cells. The driving force for the response is the creation of a chloride ion gradient in conjunction with channel activation by a single liquid addition step after the cells have previously been treated with compounds and subsequently loaded with a voltage sensing dye.
Identification of Correction Compounds
To identify small molecules that correct the trafficking defect associated with ΔF508-CFTR; a single-addition HTS assay format was developed. Assay Plates containing cells are incubated for ˜2-4 hours in tissue culture incubator at 37° C., 5% CO2, 90% humidity. Cells are then ready for compound exposure after adhering to the bottom of the assay plates.
The cells were incubated in serum-free medium for 16-24 hrs in tissue culture incubator at 37° C., 5% CO2, 90% humidity in the presence or absence (negative control) of test compound. The cells were subsequently rinsed 3× with Krebs Ringers solution and loaded with a voltage sensing redistribution dye. To activate ΔF508-CFTR, 10 μM forskolin and the CFTR potentiator, genistein (20 μM), were added along with Cl^−-free medium to each well. The addition of Cl^−-free medium promoted Cl^− efflux in response to ΔF508-CFTR activation and the resulting membrane depolarization was optically monitored using voltage sensor dyes.
Bath #1: (in mM) NaCl 160, KCl 4.5, CaCl2 2, MgCl2 1, HEPES 10, pH 7.4 with NaOH.
free bath solution: Chloride salts in Bath Solution #1 are substituted with gluconate salts.
NIH3T3 fibroblasts stably expressing ΔF508-CFTR are used for optical measurements of membrane potential. The cells are maintained at 37° C. in 5% CO2 and 90% humidity in Dulbecco's modified Eagle's medium supplemented with 2 mM glutamine, 10% fetal bovine serum, 1×NEAA, β-ME, 1× pen/strep, and 25 mM HEPES in 175 cm^2 culture flasks. For all optical assays, the cells were seeded at ˜20,000/well in 384-well matrigel-coated plates and cultured for 2 hrs at 37° C. before culturing at 27° C. for 24 hrs. for the potentiator assay. For the correction assays, the cells are cultured at 27° C. or 37° C. with and without compounds for 16-24 hours. Electrophysiological Assays for assaying ΔF508-CFTR modulation properties of compounds.

A short description of another data set: Solubility in water. The data set is classed as physicochemical.

Chain of ΔF508-CFTR (P13569 other isoform, or with tags, fused parts or gaps del F508-F508): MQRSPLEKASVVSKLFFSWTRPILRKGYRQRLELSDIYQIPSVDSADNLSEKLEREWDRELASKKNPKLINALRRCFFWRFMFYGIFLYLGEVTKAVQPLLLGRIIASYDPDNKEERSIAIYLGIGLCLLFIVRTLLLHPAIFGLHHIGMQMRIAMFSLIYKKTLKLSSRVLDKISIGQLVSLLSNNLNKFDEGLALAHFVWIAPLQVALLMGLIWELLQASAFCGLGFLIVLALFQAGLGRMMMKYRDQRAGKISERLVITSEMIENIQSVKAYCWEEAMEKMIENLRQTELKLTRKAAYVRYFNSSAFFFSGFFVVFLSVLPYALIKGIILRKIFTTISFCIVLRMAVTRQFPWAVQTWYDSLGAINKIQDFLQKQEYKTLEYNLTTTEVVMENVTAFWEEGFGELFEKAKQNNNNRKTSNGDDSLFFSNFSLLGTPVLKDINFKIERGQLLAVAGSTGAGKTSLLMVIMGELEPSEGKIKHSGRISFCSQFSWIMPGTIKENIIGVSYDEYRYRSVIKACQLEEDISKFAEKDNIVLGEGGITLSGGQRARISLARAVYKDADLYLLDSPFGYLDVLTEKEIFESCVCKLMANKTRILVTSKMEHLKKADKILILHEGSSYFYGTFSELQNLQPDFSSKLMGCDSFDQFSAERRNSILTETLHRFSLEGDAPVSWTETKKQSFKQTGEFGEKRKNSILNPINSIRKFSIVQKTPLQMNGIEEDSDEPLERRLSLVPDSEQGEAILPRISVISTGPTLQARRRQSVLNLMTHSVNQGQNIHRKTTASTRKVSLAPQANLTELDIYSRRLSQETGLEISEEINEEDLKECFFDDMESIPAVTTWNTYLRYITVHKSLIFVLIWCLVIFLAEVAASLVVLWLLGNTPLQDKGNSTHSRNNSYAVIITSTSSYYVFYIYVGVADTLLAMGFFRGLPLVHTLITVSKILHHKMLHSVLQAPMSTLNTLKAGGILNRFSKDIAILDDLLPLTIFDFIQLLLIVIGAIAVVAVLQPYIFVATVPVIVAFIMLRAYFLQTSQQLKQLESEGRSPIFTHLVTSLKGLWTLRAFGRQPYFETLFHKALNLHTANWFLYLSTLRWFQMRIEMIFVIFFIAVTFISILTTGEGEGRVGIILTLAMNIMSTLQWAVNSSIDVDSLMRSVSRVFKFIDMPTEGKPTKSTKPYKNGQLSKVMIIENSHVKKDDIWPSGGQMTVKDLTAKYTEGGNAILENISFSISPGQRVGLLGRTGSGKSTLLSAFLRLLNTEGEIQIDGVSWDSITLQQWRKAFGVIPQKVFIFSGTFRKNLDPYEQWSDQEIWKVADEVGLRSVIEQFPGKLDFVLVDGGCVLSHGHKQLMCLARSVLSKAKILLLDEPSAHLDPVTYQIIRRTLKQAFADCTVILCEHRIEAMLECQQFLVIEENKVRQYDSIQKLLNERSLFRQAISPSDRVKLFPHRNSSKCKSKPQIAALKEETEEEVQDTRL

As to `CC(C)(CCOC[C@@H](O)CO)c1cc2cc(NC(=O)C3(c4ccc5c(c4)OC(F)(F)O5)CC3)c(F)cc2n1C[C@@H](O)CO` [Compound 308], the EC50 at ΔF508-CFTR (read-out: Binned EC50) was 2 to 5 µM; at ΔF508-CFTR (read-out: EC50), 3.1 µM. Further, the Emax is over 100% at ΔF508-CFTR (read-out: Binned Max Efficacy) and 100% on ΔF508-CFTR (read-out: Max Efficacy).
The matching figures for `CC(C)(C)c1cc2cc(NC(=O)C3(c4ccc5c(c4)CCC5)CC3)ccc2n1C[C@@H](O)CO` [Compound 307]: under 2 µM, 0.981 µM, over 100% and 160%.
The matching figures for `CC1(C)CCn2c1cc1cc(NC(=O)C3(c4ccc5c(c4)OC(F)(F)O5)CC3)c(F)cc12` [Compound 314]: under 2 µM, 0.229 µM, over 100% and 124%.
Consider `CC(C)(CO)c1cc2cc(NC(=O)C3(c4ccc5c(c4)OC(F)(F)O5)CC3)c(F)cc2[nH]1` [Compound 320], for which the 50% effective concentration (EC50) on ΔF508-CFTR (read-out: Binned EC50) is 2 to 5 µM; on ΔF508-CFTR (read-out: EC50), 4.32 µM. The Emax on ΔF508-CFTR (read-out: Binned Max Efficacy) was 25 to 100%; at ΔF508-CFTR (read-out: Max Efficacy), 94%.
As to `CC(C)(C)c1cc(C(C)(C)C)c(NC(=O)c2c[nH]c3ccccc3c2=O)cc1O` [Compound B, N-(2,4-di-tert-butyl-5-hydroxyphenyl)-4-oxo-1,4-dihydroquinoline-3-carboxamide], the solubility in the data set “Solubility in water” was under 0.05 µg/mL.
For the molecule `CC(C)(CCOC[C@@H](O)CO)c1cc2cc(NC(=O)C3(c4ccc5c(c4)OC(F)(F)O5)CC3)c(F)cc2[nH]1` [Compound 316], the EC50 on ΔF508-CFTR (read-out: Binned EC50) is under 2 µM; at ΔF508-CFTR (read-out: EC50), 0.285 µM. Moreover, the Emax is over 100% on ΔF508-CFTR (read-out: Binned Max Efficacy) and 126% at ΔF508-CFTR (read-out: Max Efficacy).
The matching figures for `CC(C)(C)c1cc2cc(NC(=O)C3(c4ccc5c(c4)OCO5)CC3)c(F)cc2n1C[C@@H](O)CO` [Compound 318]: under 2 µM, 0.0659 µM, over 100% and 132%.
In the case of `CC(C)(C)c1cc2c(C#N)c(NC(=O)C3(c4ccc5c(c4)OC(F)(F)O5)CC3)ccc2[nH]1` [Compound 313], the EC50 on ΔF508-CFTR (read-out: Binned EC50) was under 2 µM; at ΔF508-CFTR (read-out: EC50), 0.284 µM. In addition, the values for the Emax on ΔF508-CFTR (read-out: Binned Max Efficacy) and at ΔF508-CFTR (read-out: Max Efficacy) were over 100% and 102%, respectively.
Turning to `CC(C)(C)c1cc2cc(NC(=O)C3(c4ccc(O)c(O)c4)CC3)ccc2n1C[C@@H](O)CO` [Compound 321], the values for the EC50 on ΔF508-CFTR (read-out: Binned EC50) and at ΔF508-CFTR (read-out: EC50) were under 2 µM and 1.81 µM, respectively. Further, the Emax on ΔF508-CFTR (read-out: Binned Max Efficacy) was 25 to 100%; on ΔF508-CFTR (read-out: Max Efficacy), 76%.
As for `CC(C)(CO)c1cc2cc(NC(=O)C3(c4ccc5c(c4)OC(F)(F)O5)CC3)c(F)cc2n1C[C@@H](O)CO` [Compound 315], the figures for the EC50 at ΔF508-CFTR (read-out: Binned EC50) and at ΔF508-CFTR (read-out: EC50) were under 2 µM and 0.272 µM, respectively. Besides, the values for the Emax at ΔF508-CFTR (read-out: Binned Max Efficacy) and at ΔF508-CFTR (read-out: Max Efficacy) were over 100% and 106%, respectively.
The matching figures for `COc1ccc(C2(C(=O)Nc3ccc4[nH]c(C(C)(C)C)cc4c3)CC2(C)C)cc1` (stereo not shown) [Compound 317]: 2 to 5 µM, 4.53 µM, 25 to 100% and 65.5%.
Turning to `CN(C)CCn1c(C(C)(C)C)cc2cc(NC(=O)C3(c4ccc5c(c4)OC(F)(F)O5)CC3)c(F)cc21` [Compound 309], the “Binned Max Efficacy” value on ΔF508-CFTR was “+++ (“+++” means >100%)”. The “Max Efficacy” value at ΔF508-CFTR was 122%. Also, the values for the EC50 on ΔF508-CFTR (read-out: Binned EC50) and at ΔF508-CFTR (read-out: EC50) were under 2 µM and 0.0381 µM, respectively.
As to `CC(C)(C)c1cc2cc(NC(=O)C3(c4ccc5c(c4)OCO5)CC3)c(F)cc2n1C[C@@H](O)CO` [Compound 310], the “Binned Max Efficacy” value at ΔF508-CFTR is “+++ (“+++” means >100%)”. For the same molecule, on ΔF508-CFTR, the “Max Efficacy” value is listed as 120.5%. In addition, the EC50 is under 2 µM at ΔF508-CFTR (read-out: Binned EC50) and 0.16 µM on ΔF508-CFTR (read-out: EC50).
As to `CC(C)(C)c1cc2c(C#N)c(NC(=O)C3(c4ccc5c(c4)OC(F)(F)O5)CC3)ccc2n1CCO` [Compound 312], the EC50 at ΔF508-CFTR (read-out: Binned EC50) is under 2 µM; at ΔF508-CFTR (read-out: EC50) it was 0.181 µM. Also, the Emax was over 100% on ΔF508-CFTR (read-out: Binned Max Efficacy) and 118% at ΔF508-CFTR (read-out: Max Efficacy).
`COc1ccc(C2(C(=O)Nc3ccc4c(c3)cc(C(C)(C)C)n4C[C@@H](O)CO)CC2(C)C)cc1` (stereo partly shown) [Compound 319]: the values for the EC50 on ΔF508-CFTR (read-out: Binned EC50) and at ΔF508-CFTR (read-out: EC50) were under 2 µM and 0.0391 µM, respectively. Also, the Emax is over 100% on ΔF508-CFTR (read-out: Binned Max Efficacy) and 126% on ΔF508-CFTR (read-out: Max Efficacy).
Turning to `CC(C)(CCO)c1cc2cc(NC(=O)C3(c4ccc5c(c4)OC(F)(F)O5)CC3)c(F)cc2n1C[C@@H](O)CO` [Compound 311], the EC50 on ΔF508-CFTR (read-out: Binned EC50) is under 2 µM; at ΔF508-CFTR (read-out: EC50) it was 0.0818 µM. For the same molecule, the values for the Emax on ΔF508-CFTR (read-out: Binned Max Efficacy) and on ΔF508-CFTR (read-out: Max Efficacy) were over 100% and 126%, respectively.
